Source: US20260297070A1, “CYCLIC [COMPOUND LEFT OUT] WRN INHIBITORS” (Nimbus Wadjet, Inc., priority 2023, published 2026)

Each molecule was assayed against T1, human Werner helicase (WRN-BV08, Uniprot Q14191, amino acids 517-1235 with L1074F point mutation) (Homo sapiens, UniProt Q14191, L1074F) (assay: WRN (BV08) ADP-Glo Assay). Details: 0.15 nM WRN, 5 μM ATP, 0.1 nM DNA duplex, 15 min preincubation, 60 min at 25° C., pH 7.5, 1% DMSO; read-out: ADP-Glo_hWRN_IC50.
T1 construct: Uniprot Q14191, amino acids 517-1235 with L1074F point mutation; TEV-cleavable 8×His (C, cleaved yes); made in house; host or cells: Sf9 insect cells (baculovirus)
T1 sequence (Q14191 with tags, fused parts or gaps L1074F limits assumed): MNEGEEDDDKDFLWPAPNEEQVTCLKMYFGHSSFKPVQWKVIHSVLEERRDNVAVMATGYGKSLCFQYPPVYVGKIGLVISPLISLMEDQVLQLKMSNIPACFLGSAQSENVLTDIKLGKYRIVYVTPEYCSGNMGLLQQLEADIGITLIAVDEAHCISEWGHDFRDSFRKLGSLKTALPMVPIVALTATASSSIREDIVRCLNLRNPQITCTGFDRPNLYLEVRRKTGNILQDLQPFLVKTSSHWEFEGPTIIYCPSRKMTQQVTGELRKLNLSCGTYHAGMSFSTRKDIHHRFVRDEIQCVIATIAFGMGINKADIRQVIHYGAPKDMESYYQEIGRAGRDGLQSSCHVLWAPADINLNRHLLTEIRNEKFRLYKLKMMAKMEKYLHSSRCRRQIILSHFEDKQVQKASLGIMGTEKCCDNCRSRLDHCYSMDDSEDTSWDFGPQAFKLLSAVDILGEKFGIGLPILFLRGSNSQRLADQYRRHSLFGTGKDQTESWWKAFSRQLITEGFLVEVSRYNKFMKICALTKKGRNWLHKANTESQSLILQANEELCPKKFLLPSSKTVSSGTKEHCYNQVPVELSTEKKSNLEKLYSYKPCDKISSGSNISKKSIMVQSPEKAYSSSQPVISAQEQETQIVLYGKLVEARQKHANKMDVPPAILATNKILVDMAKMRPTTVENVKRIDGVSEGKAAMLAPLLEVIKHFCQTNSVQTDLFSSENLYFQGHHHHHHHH
Type: biochemical
In short: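 ADP-Glo luminescence read-out of ATP hydrolysis. Conditions: 0.15 nM WRN, 5 μM ATP, 0.1 nM DNA duplex, 1% DMSO, 60 min at 25 °C after 15 min compound preincubation. Max/min controls were DMSO and 20 μM NSC-617145; IC50 from four-parameter fit.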

| IC50 | SMILES |
| --- | --- |
| > 50 µM | COc1cc(CN(C(=O)Cn2cnc(-c3ccc(F)cc3)c2)[C@@H]2C=CS(=O)(=O)C2)ccn1 [I-597, N-[(3R)-1,1-dioxo-2,3-dihydro-1lambda6-thiophen-3-yl]-2-[4-(4-fluorophenyl)-1H-imidazol-1-yl]-N-[(2-methoxypyridin-4-yl)methyl]acetamide] |
| 0.5 to 5 µM | COc1cc(CN(C(=O)C(OCc2cnn(C)c2)c2ccc(-c3ccc(F)c(F)c3)cc2F)[C@@H]2C=CS(=O)(=O)C2)ccn1 (stereo partly drawn) [I-745, N-[(3R)-1,1-dioxo-2,3-dihydro-1lambda6-thiophen-3-yl]-N-[(2-methoxypyridin-4-yl)methyl]-2-[(1-methyl-1H-pyrazol-4-yl)methoxy]-2-{3,3′,4′-trifluoro-[1,1′-biphenyl]-4-yl}acetamide] |
| 5 to 10 µM | COc1cc(CN(C(=O)Cn2nc3ccc(C(F)(F)F)cc3c2C)[C@@H]2C=CS(=O)(=O)C2)ccn1 [I-766, N-[(3R)-1,1-dioxo-2,3-dihydro-1lambda6-thiophen-3-yl]-N-[(2-methoxypyridin-4-yl)methyl]-2-[3-methyl-5-(trifluoromethyl)-2H-indazol-2-yl]acetamide] |
| 0.5 to 5 µM | COc1cc(CN(C(=O)Cn2cc3cc(C(F)(F)F)ccc3n2)[C@@H]2C=CS(=O)(=O)C2)ccn1 [I-699, N-[(3R)-1,1-dioxo-2,3-dihydro-1lambda6-thiophen-3-yl]-N-[(2-methoxypyridin-4-yl)methyl]-2-[5-(trifluoromethyl)-2H-indazol-2-yl]acetamide] |
| < 0.5 µM | CC(C(=O)N(Cc1ccnc(C(C)(C)O)c1)C1C=CS(=O)(=O)C1)n1cc(-c2cc(F)c(F)c(F)c2)cn1 (single isomer, unassigned) [I-777, (2R*)-N-[(3R**)-1,1-dioxo-2,3-dihydro-1lambda6-thiophen-3-yl]-N-{[2-(2-hydroxypropan-2-yl)pyridin-4-yl]methyl}-2-[4-(3,4,5-trifluorophenyl)-1H-pyrazol-1-yl]propanamide] |
| > 50 µM | Cc1nc2cc(CC(=O)N(Cc3ccncc3)C3C=CS(=O)(=O)C3)ccc2o1 (centres unmarked) [I-610, N-(1,1-dioxo-2,3-dihydro-1lambda6-thiophen-3-yl)-2-(2-methyl-1,3-benzoxazol-5-yl)-N-[(pyridin-4-yl)methyl]acetamide] |
| < 0.5 µM | CCc1csc(CN(C(=O)Cc2ccc(S(F)(F)(F)(F)F)cc2)C2C=CS(=O)(=O)C2)n1 (centres unmarked) [I-628, N-(1,1-dioxo-2,3-dihydro-1lambda6-thiophen-3-yl)-N-[(4-ethyl-1,3-thiazol-2-yl)methyl]-2-[4-(pentafluoro-lambda6-sulfanyl)phenyl]acetamide] |
| < 0.5 µM | CNC(=O)C(C(=O)N(Cc1ccnc(OC)c1)[C@@H]1C=CS(=O)(=O)C1)c1ccc(-c2ccc(F)c(F)c2)cc1F (single isomer, unassigned) [I-694, (2R*)-N′-[(3R)-1,1-dioxo-2,3-dihydro-1lambda6-thiophen-3-yl]-N′-[(2-methoxypyridin-4-yl)methyl]-N-methyl-2-{3,3′,4′-trifluoro-[1,1′-biphenyl]-4-yl}propanediamide] |
| 0.5 to 5 µM | CC(C)(O)c1cc(CN(C(=O)Cn2ncc3cc(S(F)(F)(F)(F)F)ccc32)C2C=CS(=O)(=O)C2)ccn1 (single isomer, unassigned) [I-727] |

Further lines, the molecule ahead of its results:

| SMILES | IC50 |
| --- | --- |
| O=C(Cn1ncc2ccccc21)N(Cc1ccncc1)C1C=CS(=O)(=O)C1 (centres unmarked) [I-454, N-(1,1-dioxo-2,3-dihydro-1lambda6-thiophen-3-yl)-2-(1H-indazol-1-yl)-N-[(pyridin-4-yl)methyl]acetamide] | > 50 µM |
| O=C(Cc1ccc2cc(Br)ccc2c1)N(Cc1ccncc1)C1C=CS(=O)(=O)C1 (centres unmarked) [I-220, 2-(6-bromonaphthalen-2-yl)-N-(1,1-dioxo-2,3-dihydro-1lambda6-thiophen-3-yl)-N-[(pyridin-4-yl)methyl]acetamide] | 5 to 10 µM |
| O=C(Cn1nnc(-c2ccccc2)n1)N(Cc1ccncc1)C1C=CS(=O)(=O)C1 (centres unmarked) [I-442, N-(1,1-dioxo-2,3-dihydro-1lambda6-thiophen-3-yl)-2-(5-phenyl-2H-1,2,3,4-tetrazol-2-yl)-N-[(pyridin-4-yl)methyl]acetamide] | > 50 µM |
| O=C(Cc1ccc(-c2nccs2)cc1)N(Cc1ccncc1)C1C=CS(=O)(=O)C1 (centres unmarked) [I-466, N-(1,1-dioxo-2,3-dihydro-1lambda6-thiophen-3-yl)-N-[(pyridin-4-yl)methyl]-2-[4-(1,3-thiazol-2-yl)phenyl]acetamide] | > 50 µM |
| CC(C)(O)c1cc(CN(C(=O)Cc2ncc(-c3ccc(F)c(F)c3)cc2F)C2C=CS(=O)(=O)C2)ccn1 (single isomer, unassigned) [I-50, 2-(5-(3,4-difluorophenyl)-3-fluoropyridin-2-yl)-N-(1,1-dioxido-2,3-dihydrothiophen-3-yl)-N-((2-(2-hydroxypropan-2-yl)pyridin-4-yl)methyl)acetamide] | < 0.5 µM |
| COc1cc(CN(C(=O)Cc2c(F)cc(-c3ccc(F)cc3)cc2F)C2C=CS(=O)(=O)C2)ccn1 (centres unmarked) [I-168, N-(1,1-dioxo-2,3-dihydro-1lambda6-thiophen-3-yl)-N-[(2-methoxypyridin-4-yl)methyl]-2-{3,4′,5-trifluoro-[1,1′-biphenyl]-4-yl}acetamide] | 0.5 to 5 µM |
| CNC(=O)C(C(=O)N(Cc1ccnc(C(C)(C)O)c1)[C@@H]1C=CS(=O)(=O)C1)c1ccc(-c2ccc(F)c(F)c2)cc1F (some centres unmarked) [I-3, N1-(1,1-dioxido-2,3-dihydrothiophen-3-yl)-N1-((2-(2-hydroxypropan-2-yl)pyridin-4-yl)methyl)-N3-methyl-2-(3,3′,4′-trifluoro-[1,1′-biphenyl]-4-yl)malonamide] | < 0.5 µM |
| O=C(Cc1ccc(-c2ccc(F)cc2C(F)F)cc1)N(Cc1ccncc1)C1C=CS(=O)(=O)C1 (centres unmarked) [I-334, 2-[2′-(difluoromethyl)-4′-fluoro-[1,1′-biphenyl]-4-yl]-N-(1,1-dioxo-2,3-dihydro-1lambda6-thiophen-3-yl)-N-[(pyridin-4-yl)methyl]acetamide] | 10 to 50 µM |
| O=C(CCc1c[nH]c2cc(F)ccc12)N(Cc1ccncc1)C1C=CS(=O)(=O)C1 (centres unmarked) [I-368, N-(1,1-dioxo-2,3-dihydro-1lambda6-thiophen-3-yl)-3-(6-fluoro-1H-indol-3-yl)-N-[(pyridin-4-yl)methyl]propanamide] | 10 to 50 µM |
| CN(C)C(=O)C(C(=O)N(Cc1ccncc1)C1C=CS(=O)(=O)C1)c1ccc(Br)cc1 (centres unmarked) [I-474, 2-(4-bromophenyl)-N′-(1,1-dioxo-2,3-dihydro-1lambda6-thiophen-3-yl)-N,N-dimethyl-N′-[(pyridin-4-yl)methyl]propanediamide] | > 50 µM |
| O=C(Cc1ccc(-n2cccc2)cc1)N(Cc1cccc2nccnc12)C1C=CS(=O)(=O)C1 (centres unmarked) [I-316, N-(1,1-dioxo-2,3-dihydro-1lambda6-thiophen-3-yl)-2-[4-(1H-pyrrol-1-yl)phenyl]-N-[(quinoxalin-5-yl)methyl]acetamide] | 10 to 50 µM |
| COc1cc(CN(C(=O)C2CNc3cc(-c4ccc(F)cc4)ccc32)[C@@H]2C=CS(=O)(=O)C2)ccn1 (some centres unmarked) [I-53, N-(1,1-dioxido-2,3-dihydrothiophen-3-yl)-6-(4-fluorophenyl)-N-((2-methoxypyridin-4-yl)methyl)indoline-3-carboxamide] | < 0.5 µM |
| COc1cc(CN(C(=O)Cc2ccn(-c3ccc(Cl)cc3)n2)C2C=CS(=O)(=O)C2)ccn1 (centres unmarked) [I-380, 2-[1-(4-chlorophenyl)-1H-pyrazol-3-yl]-N-(1,1-dioxo-2,3-dihydro-1lambda6-thiophen-3-yl)-N-[(2-methoxypyridin-4-yl)methyl]acetamide] | > 50 µM |
| COc1cc(CN(C(=O)Cc2ccc(-n3cccc3C)cc2F)C2C=CS(=O)(=O)C2)nc(OC)c1 (centres unmarked) [I-202, N-[(4,6-dimethoxypyridin-2-yl)methyl]-N-(1,1-dioxo-2,3-dihydro-1lambda6-thiophen-3-yl)-2-[2-fluoro-4-(2-methyl-1H-pyrrol-1-yl)phenyl]acetamide] | 0.5 to 5 µM |
| O=C(/C=C/c1ccccc1)N(Cc1ccncc1)C1C=CS(=O)(=O)C1 (centres unmarked) [I-530, (2E)-N-(1,1-dioxo-2,3-dihydro-1lambda6-thiophen-3-yl)-3-phenyl-N-[(pyridin-4-yl)methyl]prop-2-enamide] | > 50 µM |
| COc1cc(CN(C(=O)C(C(=O)N(C)C)c2ccc(-c3ccc(F)c(F)c3)cc2F)C2C=CS(=O)(=O)C2)ccn1 (single isomer, unassigned) [I-577, (2R**)-N-[(3R*)-1,1-dioxo-2,3-dihydro-1lambda6-thiophen-3-yl]-N-[(2-methoxypyridin-4-yl)methyl]-N′,N′-dimethyl-2-{3,3′,4′-trifluoro-[1,1′-biphenyl]-4-yl}propanediamide] | < 0.5 µM |
| O=C(Cc1ccc(-c2ccc(F)cc2)cc1F)N(Cc1ccncc1)C1C=CS(=O)(=O)C1 (centres unmarked) [I-115, 2-{3,4′-difluoro-[1,1′-biphenyl]-4-yl}-N-(1,1-dioxo-2,3-dihydro-1lambda6-thiophen-3-yl)-N-[(pyridin-4-yl)methyl]acetamide] | 0.5 to 5 µM |
| N#Cc1ccc2c(CC(=O)N(Cc3ccncc3)C3C=CS(=O)(=O)C3)c[nH]c2c1 (centres unmarked) [I-546, 2-(6-cyano-1H-indol-3-yl)-N-(1,1-dioxo-2,3-dihydro-1lambda6-thiophen-3-yl)-N-[(pyridin-4-yl)methyl]acetamide] | > 50 µM |
| O=C(Cn1ccc(-c2ccccc2)n1)N(Cc1ccncc1)C1C=CS(=O)(=O)C1 (centres unmarked) [I-450, N-(1,1-dioxo-2,3-dihydro-1lambda6-thiophen-3-yl)-2-(3-phenyl-1H-pyrazol-1-yl)-N-[(pyridin-4-yl)methyl]acetamide] | > 50 µM |
| O=C(Cn1cc(-c2ccccc2)cn1)N(Cc1ccncc1)C1C=CS(=O)(=O)C1 (single isomer, unassigned) [I-281] | 10 to 50 µM |
